Where no end group is shown, it is not given here.
Legend:
[1] = Effect of MHB dilution on antibacterial activity of a panel of antibiotics; assay type: cell-based; conditions: MHB from 100 to 12.5%
E. coli E423-17 [2] = assay type: cell-based, Escherichia coli; conditions: MHB 100%
K. pneumoniae E406-17 = assay type: cell-based, Klebsiella pneumoniae
Procedure, shortened: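 Peptides twofold serially diluted against exponential-phase resistant clinical isolates at ~10^5 CFU/mL in MHB (also diluted MHB, TSB or LB in one protocol), CLSI-based broth microdilution. Incubated overnight at 37° C., OD 600 nm read; MIC taken as lowest concentration without growth, reported as ranges.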

[3] = system: human keratinocyte HaCaT cells; assay: Cell viability assay (MTS); assay type: cell-based
Procedure: Human keratinocyte HaCaT cells were grown in DMEM/high glucose (Hyclone, UT) containing 10% fetal bovine serum (Mediatech, Corning, Manassas, VA). […] The mixture was incubated at 37° C. in 5% CO2 for 24 hours.
HepG2 cells were cultured in ATCC-formulated Eagle's Minimum Essential Medium with 10% FBS. A549 cells were grown in ATCC-formulated F-12K Medium containing 10% FBS.

E. coli E423-17 [4] = assay: Membrane permeabilization (propidium iodide); assay type: cell-based, Escherichia coli; conditions: Example 1, 1×MIC
MRSA USA300 = assay: Inhibition of bacterial attachment; assay type: cell-based, Staphylococcus aureus; conditions: Example 1, 4× and 8×MIC
Procedure: Inhibition of Bacterial Attachment. Bacterial attachment is the initial step for biofilm formation. For this experiment, an overnight culture of MRSA USA300 was grown overnight in TSB media to an optical density (OD600) of ˜1.0. […] The plates were then incubated at 37° C. for 1 hour. Next, the medium was aspirated and washed with 1×PBS, and 200 μL of TSB containing XTT 10% [2,3-bis(2-methyloxy-4-nitro-5-sulfophenyl)-2H-tertazolium-5-carboxanilide](ATCC, VA) solution was added. After incubation at 37° C. for 2 hours, absorbance was read at 450 nm using a ChroMate™ microtiter plate reader. TSB containing 10% XTT served as a blank, while bacterial culture treated with water served as a positive control. Percentages of viable cells in biofilms were plotted by assuming 100% growth in water treated control.
Bacterial attachment was conducted (Mishra, et al. (2016) ACS Med. Chem. Lett., 77(1):117-121; Duplantier, et al. (2013) Front. Immunol., 4: 143). In brief, an overnight culture of MRSA USA300 or P. aeruginosa E411-17 was grown overnight in TSB media to an optical density (OD600) of ˜1.0. […] The plates were then incubated at 37° C. for 1 hour. […] After incubation at 37° C. for 2 hours, absorbance was read at 450 nm using a ChroMate® microtiter plate reader. […]

pepsin = target: T1, pepsin (Sus scrofa, UniProt P00791); assay type: in vitro ADME, mammalian
T1 construct: purchased Thermo Fisher Scientific
T1 sequence (P00791 60-385): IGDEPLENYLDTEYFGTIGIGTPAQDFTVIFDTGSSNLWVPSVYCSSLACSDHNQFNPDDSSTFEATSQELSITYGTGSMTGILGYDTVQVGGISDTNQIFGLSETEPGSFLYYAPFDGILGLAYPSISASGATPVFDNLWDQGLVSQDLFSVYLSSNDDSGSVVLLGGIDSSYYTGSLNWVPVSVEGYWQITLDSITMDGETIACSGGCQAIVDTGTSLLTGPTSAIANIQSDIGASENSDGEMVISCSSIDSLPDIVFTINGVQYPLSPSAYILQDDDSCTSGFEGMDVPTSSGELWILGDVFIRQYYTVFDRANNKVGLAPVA
Procedure: A solution of peptide/protease (40:1 molar ratio) was made in phosphate-buffered saline (PBS; pH 7.1, Gibco, NY) and incubated at 37° C. for 1 hour. As controls, peptides without proteases were also incubated in the same manner. Then, aliquots of 10 μL were transferred to a 96-well polystyrene microplate and mixed with the exponential-phase MRSA USA300 culture as performed in the antibacterial activity assays above.

## CCCCCCCCCC(=O)N[C@@H](Cc1c[nH]c2ccccc12)C(=O)N[C@H](CC(N)=O)C(=O)N[C@@H](CC(=O)O)C(=O)N[C@@H]1C(=O)NCC(=O)N[C@@H](CCCN)C(=O)N[C@@H](CC(=O)O)C(=O)N[C@H](C)C(=O)N[C@@H](CC(=O)O)C(=O)NCC(=O)N[C@H](CO)C(=O)N[C@@H]([C@H](C)CC(=O)O)C(=O)N[C@@H](CC(=O)c2ccccc2N)C(=O)O[C@@H]1C [Daptomycin]
[1]
  change in MIC with dilution of MHB: essentially no changes

## CC[C@H](C)[C@H](NC(=O)[C@H](CCCCN)NC(=O)[C@H](CCC(=O)O)NC(=O)[C@H](CCCCN)NC(=O)[C@H](CO)NC(=O)[C@H](CCCCN)NC(=O)[C@H](CCCNC(=N)N)NC(=O)[C@H](Cc1ccccc1)NC(=O)[C@H](Cc1ccccc1)NC(=O)[C@H](CC(=O)O)NC(=O)CNC(=O)[C@H](CC(C)C)NC(=O)[C@@H](N)CC(C)C)C(=O)NCC(=O)N[C@@H](CCCCN)C(=O)N[C@@H](CCC(=O)O)C(=O)N[C@@H](Cc1ccccc1)C(=O)N[C@@H](CCCCN)C(=O)N[C@@H](CCCNC(=N)N)C(=O)N[C@H](C(=O)N[C@H](C(=O)N[C@@H](CCC(N)=O)C(=O)N[C@@H](CCCNC(=N)N)C(=O)N[C@H](C(=O)N[C@@H](CCCCN)C(=O)N[C@@H](CC(=O)O)C(=O)N[C@@H](Cc1ccccc1)C(=O)N[C@@H](CC(C)C)C(=O)N[C@@H](CCCNC(=N)N)C(=O)N[C@@H](CC(N)=O)C(=O)N[C@@H](CC(C)C)C(=O)N[C@H](C(=O)N1CCC[C@H]1C(=O)N[C@@H](CCCNC(=N)N)C(=O)N[C@H](C(=O)N[C@@H](CCC(=O)O)C(=O)N[C@@H](CO)C(=O)O)[C@@H](C)O)C(C)C)[C@@H](C)CC)C(C)C)[C@@H](C)CC [LL-37]
E. coli E423-17 [2]
  Antimicrobial activity (MIC): active

## RRWWRWWR-NH2 [W543]
K. pneumoniae E406-17
  Activity (MIC) K. pneumoniae: >32 µM
[3]
  toxicity to human HaCaT skin cells: least toxic
E. coli E423-17 [4]
  membrane permeabilization: 30 minute delay in membrane permeabilization
MRSA USA300
  anti-attachment ability: did not show anti-attachment ability
pepsin
  activity after protease incubation: retained antibacterial activity

Source: US20250101062A1, “ANTIMICROBIAL PEPTIDES” (Board of Regents of the University of Nebraska, priority 2023, published 2025)
